Source: patent US11096985B2, “Antimicrobial peptides, their variants and uses” (priority 2015, dated 2021)
Where a SMILES comes first, the peptide text is derived from it.

Tests used:
human erythrocytes = format: cell-based
Method: In hemolysis assays, the ability of peptides at 128 μg/ml concentration to lyse human erythrocytes to release hemoglobin was measured. The peptides described here preferably have low hemolytic activity (0.2 to 3.8% hemolysis) in mammal body. […] These peptides are useful as antimicrobial drugs as they show little or no side effects at concentrations needed to kill bacteria.
Minimum inhibition concentrations (MICs) were tested by microbroth dilution method and Chain 104, 105 and 109 inhibited the growth of Escherichia coli (ATCC 25922), Staphylococcus aureus (ATCC 25923), Klebsiella pneumoniae (ATCC 10031) and Pseudomonas aeruginosa (ATCC 27853) between 1-8 μg/ml respectively (Tables 3a, 3b and 3c). The membranolytic activities of the peptides were tested by measuring the release of hemoglobin from erythrocytes of fresh blood donated by voluntiers. Hemoglobin levels were determined spectrometrically by taking OD at 540 nm by following the protocol of Schmidtchen et al., 2011.

[1] = +4, 25, 37 and 45° C., 14 days, PBS pH 7.4, RDA with 20 μg
Method: (§3) Thermal stability was evaluated by diluting peptides to the concentration of 2 mg/ml in PBS buffer (pH 7.4) and incubating at different temperatures, such as +4° C., 25° C. (RT), 37° C. and 45° C., peptides stored at −20° C. were used as control. […] Peptides were also tested by diluting them at different pH values starting from pH 4 to 9. The effect of NaCl on the antimicrobial activity was tested by adding different concentrations (50, 100 and 200 mM) of NaCl to MH medium and the minimum inhibitory concentrations were tested against 4 ATCC bacterial strains.

[2] = pH 4-9, RDA
Method: as §3

[3] = tested on: gram positive and negative bacteria; experiment: MIC by micro broth dilution, summary over the strains tested; format: cell-based
Method: (§1) Minimum inhibition concentrations (MICs) were determined against Escherichia coli (ATCC 25922), Staphylococcus aureus (ATCC 25923), Klebsiella pneumoniae (ATCC 10031) and Pseudomonas aeruginosa (ATCC 27853). Also clinical strains of E. coli, K. pneumoniae, E. cloacae, P. aeruginosa, Serratia marcescens, Proteus mirabilis, S. pneumoniae, Acinetobacter baumannii, A. johnsonii and S. aureus were used for MICs assays. Additionally, clinical strains of yeast including Candida albicans, C. glabrata, C. parapsilosis and C. quillermondiae were used. The susceptibility of these microorganisms to Chain peptides were determined using micro broth dilution assay. Colonies of the respective microorganism from Muller Hinton (MH) agar plates incubated overnight were suspended in MH broth media and final concentration of microorganism was adjusted to 5.0×10^5 cfu/ml. An aliquot of 10 μl of each Chain peptide, or gentamicin, tetracycline as reference antibiotics were added in differing concentrations along with 90 μl of bacterial suspension to 96 well polypropylene plates and incubated at 37° C. for 20 to 24 hours. Concentrations of Chain peptides and reference antibiotics ranged from 0.125 to 128 μg/ml and the MICs were recorded as the lowest concentration with no visual growth of bacteria. Similarly, antifungal MICs were tested in Potato dextrose broth.

S. aureus RN4220 = format: cell-based, Staphylococcus aureus; settings: antibiotic sensitive strain S. aureus RN4220
Method: as §1
(§2) Peptides Chain 104, Chain 105, Chain 201, Chain 308, Chain 310 were tested against antibiotic-sensitive strains of S. aureus RN4220 and methicillin resistant strains of S. aureus COL (MRSA). Chain peptides comprising of either L- or D-form amino acids were tested against these bacteria, and the D-form peptides were found have better activity compared to L-form (Table 6). Synergistic activity of chain peptides along with Ertapenem (4 μg/ml) was tested to know whether it will influence the activity against MRSA strains. […] Chain 310 has the best antibacterial activity against the MRSA strains with a MIC of 0.06 & 0.03 μg/ml along with Ertapenem (4 μg/ml) for both forms of L and D-peptides (Table 6).

S. aureus COL (MRSA) = experiment: Synergistic activity with Ertapenem (4 μg/ml) against MRSA, MIC; format: cell-based, Staphylococcus aureus; settings: S. aureus COL, together with 4 μg/ml Ertapenem (synergistic activity)
Method: as §1, §2

Compound | side effects to humans as tested by hemolysis assay (human erythrocytes) | thermostability (antibacterial activity kept after incubation) [1] | pH stability (zone of inhibition) [2] | activity against the four ATCC strains [3] | other results
CC[C@H](C)[C@H](NC(=O)[C@H](CCSC)NC(=O)[C@H](C)NC(=O)[C@H](CCCNC(=N)N)NC(=O)[C@H](Cc1c[nH]c2ccccc12)NC(=O)[C@H](CCCCN)NC(=O)[C@@H](N)CCCNC(=N)N)C(=O)N[C@@H](CCCNC(=N)N)C(=O)N[C@@H](CC(C)C)C(=O)N[C@@H](Cc1c[nH]cn1)C(=O)N[C@@H](C)C(=O)N[C@@H](CCCCN)C(=O)N[C@@H](CCCNC(=N)N)C(=O)N[C@@H](CC(C)C)C(=O)N[C@@H](CCCNC(=N)N)C(=O)N[C@@H](CCCCN)C(=O)O [Chain104] (H-RKWRAMIRLHAKRLRK-OH) | little side effects | not hindered by pH or temperature even upto 45 °C for over 14 days | not hindered by pH |  | 
CC[C@H](C)[C@H](NC(=O)[C@H](CCSC)NC(=O)[C@H](C)NC(=O)[C@H](CCCNC(=N)N)NC(=O)[C@H](Cc1c[nH]c2ccccc12)NC(=O)[C@H](CCCCN)NC(=O)[C@@H](N)CCCNC(=N)N)C(=O)N[C@@H](CCCNC(=N)N)C(=O)N[C@@H](CC(C)C)C(=O)N[C@@H](Cc1c[nH]cn1)C(=O)N[C@@H](C)C(=O)N[C@@H](CCCCN)C(=O)N[C@@H](Cc1c[nH]c2ccccc12)C(=O)N[C@@H](CC(C)C)C(=O)N[C@@H](CCCNC(=N)N)C(=O)N[C@@H](CCCCN)C(=O)O [Chain105] (H-RKWRAMIRLHAKWLRK-OH) | little side effects | not hindered by pH or temperature even upto 45 °C for over 14 days | not hindered by pH |  | 
CC(C)C[C@H](NC(=O)[C@H](CCCCN)NC(=O)[C@H](Cc1c[nH]c2ccccc12)NC(=O)[C@H](CCCCN)NC(=O)[C@H](C)NC(=O)[C@H](Cc1c[nH]cn1)NC(=O)[C@H](CC(C)C)NC(=O)[C@H](CCCNC(=N)N)NC(=O)[C@H](Cc1c[nH]c2ccccc12)NC(=O)[C@@H](N)Cc1c[nH]c2ccccc12)C(=O)N[C@@H](Cc1c[nH]c2ccccc12)C(=O)O [Chain109] (H-WWRLHAKWKLW-OH) | little side effects |  |  |  | 
CC[C@H](C)[C@H](NC(=O)[C@H](Cc1c[nH]c2ccccc12)NC(=O)[C@@H](N)CCCCN)C(=O)N[C@H](C(=O)N[C@@H](Cc1c[nH]c2ccccc12)C(=O)N[C@@H](CCCNC(=N)N)C(=O)N[C@@H](Cc1c[nH]c2ccccc12)C(=O)N[C@@H](CCCNC(=N)N)C(=O)N[C@@H](Cc1ccccc1)C(=O)N[C@@H](CCCCN)C(=O)N[C@@H](CCCNC(=N)N)C(=O)O)C(C)C [Chain201] (H-KWIVWRWRFKR-OH) | little side effects | not hindered by pH or temperature even upto 45 °C for over 14 days | not hindered by pH |  | 
CC[C@H](C)[C@H](NC(=O)[C@H](CC(C)C)NC(=O)[C@H](CCCNC(=N)N)NC(=O)[C@@H](N)CCCNC(=N)N)C(=O)N[C@@H](Cc1c[nH]c2ccccc12)C(=O)N[C@@H](CCCNC(=N)N)C(=O)N[C@@H](CCCNC(=N)N)C(=O)N[C@@H](Cc1ccccc1)C(=O)N[C@@H](CCCCN)C(=O)N[C@@H](Cc1c[nH]c2ccccc12)C(=O)N[C@@H](CC(C)C)C(=O)N[C@@H](CCCNC(=N)N)C(=O)O [Chain204] (H-RRLIWRRFKWLR-OH) | little side effects | not hindered by pH or temperature even upto 45 °C for over 14 days | not hindered by pH |  | 
CC[C@H](C)[C@H](N)C(=O)N[C@@H](Cc1c[nH]c2ccccc12)C(=O)N[C@@H](CCCCN)C(=O)N[C@@H](CCCNC(=N)N)C(=O)N[C@@H](Cc1ccccc1)C(=O)N[C@@H](CCCNC(=N)N)C(=O)N[C@@H](CC(C)C)C(=O)N[C@@H](Cc1ccccc1)C(=O)N[C@@H](CCCCN)C(=O)N[C@@H](CCCCN)C(=O)N[C@@H](Cc1c[nH]c2ccccc12)C(=O)O [Chain304] (H-IWKRFRLFKKW-OH; N-terminus and C-terminus assumed) |  |  |  | very active | 
CC(C)C[C@H](NC(=O)[C@H](Cc1c[nH]c2ccccc12)NC(=O)[C@H](Cc1ccccc1)NC(=O)[C@H](Cc1c[nH]c2ccccc12)NC(=O)[C@H](CCCCN)NC(=O)[C@H](CCCNC(=N)N)NC(=O)[C@@H](N)Cc1c[nH]c2ccccc12)C(=O)N[C@@H](Cc1ccccc1)C(=O)N[C@@H](CCCCN)C(=O)N[C@@H](CCCCN)C(=O)N[C@@H](CCCNC(=N)N)C(=O)O [Chain309] (H-WRKWFWLFKKR-OH; N-terminus and C-terminus assumed) |  |  |  | very active | 
CC(C)C[C@H](NC(=O)[C@H](Cc1c[nH]c2ccccc12)NC(=O)[C@H](Cc1ccccc1)NC(=O)[C@H](Cc1c[nH]c2ccccc12)NC(=O)[C@H](CCCCN)NC(=O)[C@H](CC(C)C)NC(=O)[C@@H](N)CCCCN)C(=O)N[C@@H](Cc1ccccc1)C(=O)N[C@@H](CCCCN)C(=O)N[C@@H](CCCCN)C(=O)N[C@@H](CCCNC(=N)N)C(=O)O [Chain311] (H-KLKWFWLFKKR-OH; N-terminus and C-terminus assumed) |  |  |  | very active | 
CC(C)C[C@H](NC(=O)[C@H](CC(C)C)NC(=O)[C@H](Cc1ccccc1)NC(=O)[C@H](Cc1c[nH]c2ccccc12)NC(=O)[C@H](CCCCN)NC(=O)[C@H](CC(C)C)NC(=O)[C@@H](N)CCCNC(=N)N)C(=O)N[C@@H](Cc1ccccc1)C(=O)N[C@@H](CCCNC(=N)N)C(=O)N[C@@H](CCCCN)C(=O)N[C@@H](CCCNC(=N)N)C(=O)O [Compound 308] (H-RLKWFLLFRKR-OH) |  |  |  |  | Minimum inhibitory concentration (MIC), S. aureus RN4220 (S. aureus RN4220): >64 µg/mL; Minimum inhibitory concentration (MIC), S. aureus COL + 4 μg/ml Ertapenem (S. aureus COL (MRSA)): 0.5 µg/mL
CC(C)C[C@H](NC(=O)[C@H](CCCCN)NC(=O)[C@H](CCCCN)NC(=O)[C@H](Cc1ccccc1)NC(=O)[C@H](CC(C)C)NC(=O)[C@H](Cc1c[nH]c2ccccc12)NC(=O)[C@H](CCCNC(=N)N)NC(=O)[C@H](Cc1c[nH]c2ccccc12)NC(=O)[C@H](CCCCN)NC(=O)[C@H](CCCNC(=N)N)NC(=O)[C@@H](N)CCCCN)C(=O)O [Compound 310] (H-KRKWRWLFKKL-OH) |  |  |  |  | Minimum inhibitory concentration (MIC), S. aureus RN4220 (S. aureus RN4220): >64 µg/mL; Minimum inhibitory concentration (MIC), S. aureus COL + 4 μg/ml Ertapenem (S. aureus COL (MRSA)): 0.06 µg/mL
